Source: PubChem BioAssay AID2060328 (Molecular Pharmacology Branch, DTP, NCI, 2025)
Several values for one entry are separate records, joined by “and”; a condition that tells them apart may be missing. Equal entries are not always repeated.

System: MDA-MB-231 multicell spheroids, viability (%T/C)
Assay: Anticancer human tumor MDA-MB-231 cell line growth inhibition [IpAb];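 further: viability read after seven days of drug exposure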;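 on viability, T/C: 100% = DMSO vehicle control viability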
Details: for viability, T/C: stronger effect = lower value
How it was run: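 Combinations with ipatasertib or abemaciclib were tested on tumour spheroids holding HUVEC (25%) and MSC (15%) alongside 60% malignant cells. Top concentration was at or near clinical Cmax (10 microM if undefined), descending in half-log steps.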

[1] = curve of first compound, second compound 0.01 µM
[2] = curve of first compound, second compound 0.0316 µM
[3] = curve of first compound, second compound 0.1 µM
[4] = curve of first compound, second compound 0.316 µM
[5] = curve of first compound, second compound 1 µM
[6] = second compound 0.01 µM, first compound 0.0316 µM
[7] = second compound 0.01 µM, first compound 0.1 µM
[8] = second compound 0.0316 µM, first compound 0.0316 µM
[9] = second compound 0.0316 µM, first compound 0.1 µM
[10] = second compound 0.1 µM, first compound 0.0316 µM
[11] = second compound 0.1 µM, first compound 0.1 µM
[12] = second compound 0.316 µM, first compound 0.0316 µM
[13] = second compound 0.316 µM, first compound 0.1 µM
[14] = second compound 1 µM, first compound 0.0316 µM
[15] = second compound 1 µM, first compound 0.1 µM
[16] = second compound 0.01 µM, first compound 0.316 µM
[17] = second compound 0.01 µM, first compound 1 µM
[18] = second compound 0.01 µM, first compound 3.16 µM
[19] = second compound 0.01 µM, first compound 10 µM
[20] = second compound 0.0316 µM, first compound 0.316 µM
[21] = second compound 0.0316 µM, first compound 1 µM
[22] = second compound 0.0316 µM, first compound 3.16 µM
[23] = second compound 0.0316 µM, first compound 10 µM
[24] = second compound 0.1 µM, first compound 0.316 µM
[25] = second compound 0.1 µM, first compound 1 µM
[26] = second compound 0.1 µM, first compound 3.16 µM
[27] = second compound 0.1 µM, first compound 10 µM
[28] = second compound 0.316 µM, first compound 0.316 µM
[29] = second compound 0.316 µM, first compound 1 µM
[30] = second compound 0.316 µM, first compound 3.16 µM
[31] = second compound 0.316 µM, first compound 10 µM
[32] = second compound 1 µM, first compound 0.316 µM
[33] = second compound 1 µM, first compound 1 µM
[34] = second compound 1 µM, first compound 3.16 µM
[35] = second compound 1 µM, first compound 10 µM
[36] = curve of first compound, second compound 3.16 µM
[37] = curve of first compound, second compound 10 µM
[38] = second compound 3.16 µM, first compound 0.0316 µM
[39] = second compound 3.16 µM, first compound 0.1 µM
[40] = second compound 3.16 µM, first compound 0.316 µM
[41] = second compound 3.16 µM, first compound 1 µM
[42] = second compound 3.16 µM, first compound 3.16 µM
[43] = second compound 3.16 µM, first compound 10 µM
[44] = second compound 10 µM, first compound 0.0316 µM
[45] = second compound 10 µM, first compound 0.1 µM
[46] = second compound 10 µM, first compound 0.316 µM
[47] = second compound 10 µM, first compound 1 µM
[48] = second compound 10 µM, first compound 3.16 µM
[49] = second compound 10 µM, first compound 10 µM

CC(C)n1nc(-c2ccc3oc(N)nc3c2)c2c(N)ncnc21 + CCN1CCN(Cc2ccc(Nc3ncc(F)c(-c4cc(F)c5nc(C)n(C(C)C)c5c4)n3)nc2)CC1
IC50 [1]: 7.66 nM | IC50 [2]: 2.71 nM | IC50 [3]: 0.66 nM | IC50 [4]: < 0.316 nM | IC50 [5]: < 0.316 nM | viability, T/C (second compound 0.01 µM, first compound 0.000316 µM): 90.3% | viability, T/C (second compound 0.01 µM, first compound 0.001 µM): 85.6% | viability, T/C (second compound 0.01 µM, first compound 0.00316 µM): 65.5% | viability, T/C (second compound 0.01 µM, first compound 0.01 µM): 45.9% | viability, T/C [6]: 34.6% | viability, T/C [7]: 32.3% | viability, T/C (second compound 0.0316 µM, first compound 0.000316 µM): 73.7% | viability, T/C (second compound 0.0316 µM, first compound 0.001 µM): 64.5% | viability, T/C (second compound 0.0316 µM, first compound 0.00316 µM): 48.2% | viability, T/C (second compound 0.0316 µM, first compound 0.01 µM): 33.1% | viability, T/C [8]: 28.8% | viability, T/C [9]: 26.8% | viability, T/C (second compound 0.1 µM, first compound 0.000316 µM): 55.1% | viability, T/C (second compound 0.1 µM, first compound 0.001 µM): 47% | viability, T/C (second compound 0.1 µM, first compound 0.00316 µM): 37.4% | viability, T/C (second compound 0.1 µM, first compound 0.01 µM): 30.2% | viability, T/C [10]: 27.6% | viability, T/C [11]: 27.6% | viability, T/C (second compound 0.316 µM, first compound 0.000316 µM): 41.7% | viability, T/C (second compound 0.316 µM, first compound 0.001 µM): 38% | viability, T/C (second compound 0.316 µM, first compound 0.00316 µM): 31.4% | viability, T/C (second compound 0.316 µM, first compound 0.01 µM): 30.1% | viability, T/C [12]: 29.6% | viability, T/C [13]: 29.3% | viability, T/C (second compound 1 µM, first compound 0.000316 µM): 47.1% | viability, T/C (second compound 1 µM, first compound 0.001 µM): 45% | viability, T/C (second compound 1 µM, first compound 0.00316 µM): 39.8% | viability, T/C (second compound 1 µM, first compound 0.01 µM): 45.4% | viability, T/C [14]: 47.4% | viability, T/C [15]: 49.8%

CCCS(=O)(=O)Nc1ccc(F)c(C(=O)c2c[nH]c3ncc(-c4ccc(Cl)cc4)cc23)c1F + CCN1CCN(Cc2ccc(Nc3ncc(F)c(-c4cc(F)c5nc(C)n(C(C)C)c5c4)n3)nc2)CC1
IC50 [1]: 6840 nM | IC50 [2]: 4640 nM | IC50 [3]: 2900 nM | IC50 [4]: 887 nM | IC50 [5]: 550 nM | viability, T/C [6]: 105% | viability, T/C [7]: 104% | viability, T/C [16]: 110% | viability, T/C [17]: 93.9% | viability, T/C [18]: 70.5% | viability, T/C [19]: 40.1% | viability, T/C [8]: 82.9% | viability, T/C [9]: 87.4% | viability, T/C [20]: 86.4% | viability, T/C [21]: 80.2% | viability, T/C [22]: 57.6% | viability, T/C [23]: 34.9% | viability, T/C [10]: 70.5% | viability, T/C [11]: 66.4% | viability, T/C [24]: 66.6% | viability, T/C [25]: 62.8% | viability, T/C [26]: 48.8% | viability, T/C [27]: 32.9% | viability, T/C [12]: 52.8% | viability, T/C [13]: 53.5% | viability, T/C [28]: 51% | viability, T/C [29]: 47.8% | viability, T/C [30]: 44.3% | viability, T/C [31]: 23.4% | viability, T/C [14]: 51.9% | viability, T/C [15]: 55% | viability, T/C [32]: 53.1% | viability, T/C [33]: 45.6% | viability, T/C [34]: 43.8% | viability, T/C [35]: 32.6%

CC1(C)CCC(CN2CCN(c3ccc(C(=O)NS(=O)(=O)c4ccc(NCC5CCOCC5)c([N+](=O)[O-])c4)c(Oc4cnc5[nH]ccc5c4)c3)CC2)=C(c2ccc(Cl)cc2)C1 + CC(C)NCC(C(=O)N1CCN(c2ncnc3c2C(C)CC3O)CC1)c1ccc(Cl)cc1
IC50 [3]: 5990 nM | IC50 [4]: 5380 nM | IC50 [5]: 4750 nM | IC50 [36]: 3680 nM | IC50 [37]: < 31.6 nM | viability, T/C [10]: 99% | viability, T/C [11]: 96.8% | viability, T/C [24]: 103% | viability, T/C [25]: 95.9% | viability, T/C [26]: 96.9% | viability, T/C [27]: 12.4% | viability, T/C [12]: 86.2% | viability, T/C [13]: 88.3% | viability, T/C [28]: 93.7% | viability, T/C [29]: 94.5% | viability, T/C [30]: 86.1% | viability, T/C [31]: 7.75% | viability, T/C [14]: 75.9% | viability, T/C [15]: 79.4% | viability, T/C [32]: 75.4% | viability, T/C [33]: 77.7% | viability, T/C [34]: 71.2% | viability, T/C [35]: 10.9% | viability, T/C [38]: 60.8% | viability, T/C [39]: 57.2% | viability, T/C [40]: 59.4% | viability, T/C [41]: 60.1% | viability, T/C [42]: 56.5% | viability, T/C [43]: 7.09% | viability, T/C [44]: 39.8% | viability, T/C [45]: 43% | viability, T/C [46]: 40.5% | viability, T/C [47]: 39.4% | viability, T/C [48]: 36.4% | viability, T/C [49]: 4.22%

Cn1nccc1Nc1nccc(-c2ccn(C(CO)c3ccc(Cl)c(F)c3)c(=O)c2)n1 (stereo not drawn) + CCN1CCN(Cc2ccc(Nc3ncc(F)c(-c4cc(F)c5nc(C)n(C(C)C)c5c4)n3)nc2)CC1
IC50 [1]: 106 nM | IC50 [2]: < 31.6 nM | IC50 [3]: < 31.6 nM | IC50 [4]: < 31.6 nM | IC50 [5]: < 31.6 nM | viability, T/C [6]: 58% | viability, T/C [7]: 50.2% | viability, T/C [16]: 41.8% | viability, T/C [17]: 37% | viability, T/C [18]: 29.8% | viability, T/C [19]: 21.9% | viability, T/C [8]: 45.3% | viability, T/C [9]: 42.2% | viability, T/C [20]: 35.6% | viability, T/C [21]: 28.4% | viability, T/C [22]: 24.1% | viability, T/C [23]: 23.9% | viability, T/C [10]: 34.8% | viability, T/C [11]: 34.1% | viability, T/C [24]: 27.6% | viability, T/C [25]: 24% | viability, T/C [26]: 19.9% | viability, T/C [27]: 19.2% | viability, T/C [12]: 29.6% | viability, T/C [13]: 27.2% | viability, T/C [28]: 20.7% | viability, T/C [29]: 20.6% | viability, T/C [30]: 20.2% | viability, T/C [31]: 18.8% | viability, T/C [14]: 30.5% | viability, T/C [15]: 25.7% | viability, T/C [32]: 19.3% | viability, T/C [33]: 20.7% | viability, T/C [34]: 18.6% | viability, T/C [35]: 18.7%

CC(C)NCC(C(=O)N1CCN(c2ncnc3c2C(C)CC3O)CC1)c1ccc(Cl)cc1 (stereo not drawn)
viability, T/C (compound 0.1 µM): 95.4% [middle of 13 runs] | viability, T/C (compound 0.316 µM): 84.7% [middle of 13 runs] | viability, T/C (compound 1 µM): 70.5% [middle of 13 runs] | viability, T/C (compound 3.16 µM): 54.9% [middle of 13 runs] | viability, T/C (compound 10 µM): 39.5% [middle of 13 runs] | IC50 (compound alone, run of 06/01/2021): 4.43 µM [middle of 13 runs]

Cc1nc(NC(=O)N2CCCC2C(N)=O)sc1-c1ccnc(C(C)(C)C(F)(F)F)c1 (stereo not drawn)
viability, T/C (compound 0.0316 µM): 92.2% and 88.6% | viability, T/C (compound 0.1 µM): 74.9% and 72.1% | viability, T/C (compound 0.316 µM): 68.2% and 66% | viability, T/C (compound 1 µM): 65.7% and 73.6% | viability, T/C (compound 3.16 µM): 66.8% and 71.2% | viability, T/C (compound 10 µM): 62.7% and 60.5% | IC50 (curve of compound): > 10000 nM

C=CC(=O)N1CCN(c2nc(=O)n(-c3c(C)ccnc3C(C)C)c3nc(-c4c(O)cccc4F)c(F)cc23)C(C)C1 (stereo not drawn) + CC(C)NCC(C(=O)N1CCN(c2ncnc3c2C(C)CC3O)CC1)c1ccc(Cl)cc1
IC50 [3]: > 10000 nM | IC50 [4]: > 10000 nM | IC50 [5]: > 10000 nM | IC50 [36]: > 10000 nM | IC50 [37]: < 31.6 nM | viability, T/C [10]: 111% | viability, T/C [11]: 113% | viability, T/C [24]: 116% | viability, T/C [25]: 129% | viability, T/C [26]: 120% | viability, T/C [27]: 78.3% | viability, T/C [12]: 96.1% | viability, T/C [13]: 97% | viability, T/C [28]: 105% | viability, T/C [29]: 111% | viability, T/C [30]: 95.4% | viability, T/C [31]: 64.4% | viability, T/C [14]: 81.9% | viability, T/C [15]: 79.8% | viability, T/C [32]: 82.3% | viability, T/C [33]: 86% | viability, T/C [34]: 71% | viability, T/C [35]: 52.6% | viability, T/C [38]: 57.2% | viability, T/C [39]: 68.6% | viability, T/C [40]: 67% | viability, T/C [41]: 67.5% | viability, T/C [42]: 62.1% | viability, T/C [43]: 44.5% | viability, T/C [44]: 42.5% | viability, T/C [45]: 45.9% | viability, T/C [46]: 44.4% | viability, T/C [47]: 42.7% | viability, T/C [48]: 41.6% | viability, T/C [49]: 32.1%
